Measurements: patent US12285397B2, “Use of (s)-3-amino-4-(difluoromethylenyl) cyclopent-1-ene-1-carboxylic acid and related compounds, (1S,3S)-3-amino-4-(difluoromethylidene) cyclopentane-1-carboxylic acid and vigabatrin in the treatment of developmental disorders” (Ovid Therapeutics Inc., priority 2018, dated 2025)
Read-outs that look alike come from different tables or passages of the source.

Columns and labels:
[1] = cited from earlier work; for tmax: single 37-50 mg/kg dose of an oral solution
[2] = cited from earlier work
Fmr1 KO2 mice = experiment: Open field hyperactivity (locomotor activity), Fmr1 KO2 mice; format: in vivo, mouse; conditions: 0.1 mg/Kg
Description: (§1) Mutant fmr1 knockout (KO) mice recapitulate the Fragile X syndrome (FXS) phenotype and represent a preclinical model for assessment of putative drug treatments. In this study three different mice models of FXS were used: Fmr1 KO1 is the original Fmr1 knockout animal that carries an insertion in exon 5. See, e.g., Bakker C E, et al., The Dutch-Belgian Fragile X Consortium, Fmr1 knockout mice: A model to study fragile X mental retardation. Cell. 1994; 78:23-33 It is a protein null, although Fmr1 mRNA is still present. It is backcrossed to the C57/B16 strain. Subsequently, these mice were bred into different background strains, such as the FVB inbred mouse strain. Fmr1 KO2 is a null allele at Fmr1 generated by deletion of the promoter and first exon of Fmr1. See, Mientjes, E J et al., The generation of a conditional Fmr1 knock out mouse model to study Fmrp function in vivo. Neurobiology of Disease (2006) 21(3): 549-555. It is both protein and mRNA null. Backcrossed to the C57/B16 strain. Genotyping was accomplished using TransnetXY Automated Genotyping (http://www.transnetyx.com/). TRANSNETYX, INC., 8110 Cordova Rd. Suite 119, Cordova, TN 38016, USA.
(§2) The mice were housed in plastic cages (35×30×12 cm), 5 in each and habituated to the animal facilities for at least a week before test. The room temperature (21±2° C.), relative humidity (55±5%), a 12-h light-dark cycle (lights on 7 a.m.-7 p.m.) and air exchange (16 times per h) were automatically controlled. The animals had free access to commercial food pellets and water. Testing was conducted during the light phase. Testing was conducted on Fmr1 knockout mice and their wild-type (WT) littermates. Ten mice per treatment group, 14 weeks of age, were used for behavioral experiments. Experiments were conducted in line with the requirements of the UK Animals (Scientific Procedures) Act, 1986.
(§3) Oral dosing was performed by using 1.5-in. curved, 20-gauge, stainless steel feeding needles with a 2.25-mm ball (Braintree Scientific, Braintree, MA). Each gavage treatment was given in 0.5% methyl cellulose (Methyl Cellulose M0512, Sigma-Aldrich, St Louis, MO) used as vehicle with or without treatment compounds. The same veterinarian, blinded to the treatment groups, performed the procedure, and documented animal reactions to oral gavage. Reactions considered to indicate stress were defined as excessive struggling during gavage or abnormal behavior after gavage (labored breathing, frozen stance, exaggerated jumping, shuddering, and hunched posture).
(§4) For experiments all mice were tested once in the same apparatus. Prior to testing, mice not in the study were placed in the apparatus for some minutes before the experiment. The apparatus was then cleaned with moist and dry tissues before testing each mouse. The aim was to create a low but constant background mouse odor for all experimental subjects. All experiments were conducted with the experimenters blind to genotype and drug treatment during all testing and data analysis. Separate investigators prepared and coded dosing solutions, allocated the mice to the study treatment groups, dosed the animals, and collected the behavioral data. Data were analyzed by one-way analysis of variance (ANOVA) followed by post-hoc comparisons where appropriate using Tukey's Multiple Comparison Test. Data are represented as the mean and standard error of the mean (SEM).
1. […]

Fmr1 KO1 mice = experiment: Open field hyperactivity (locomotor activity), Fmr1 KO1 mice; format: in vivo, mouse; conditions: 0.1 mg/Kg
Description: as §1, §2, §3, §4
1. […]

[3] = test system: Fmr1 KO1 transgenic mice in an FVB background; experiment: Audiogenic seizures (AGS), Fmr1 KO1 mice in FVB background; format: in vivo, mouse; conditions: tested 20 minutes after injection, audio stimulus 60 seconds at 124 db
Procedure: 4. Audiogenic Seizures (AGS) are reflex seizures generated by loud noises in genetically predisposed mice. The Fmr1 KO1 mice display audiogenic seizures depending on age and background strain, the Fmr1 KO1 mouse on the FVB background is characterized by an increased AGS susceptibility at all ages and is considered a good animal model for epilepsy. The effect of (S)-3-amino-4-(difluoromethylenyl) cyclopent-1-ene-1-carboxylic acid was tested on AGS Fmr1 KO1 transgenic mice in an FVB background. Observable criteria are: 1. normal behavior, 2. wild running, 3. seizure, and 4. respiratory arrest.
(S)-3-amino-4-(difluoromethylenyl) cyclopent-1-ene-1-carboxylic acid was administered to Fmr1 KO1 mice, males, age 2 months in the following amounts: 0.01 mg/kg, 0.05 mg/kg, and 0.1 mg/kg. Positive controls were administered 2-Methyl-6-(phenylethynyl)pyridine (MPEP), a mGluR5 antagonist, 30 mg/kg by i.p. and tested 20 minutes after injection. Audio stimulus was administered continuously for 60 seconds at 124 db.

[4] = MPEP (positive control) 30 mg/kg i.p.

In the case of `C=CC(N)CCC(=O)O` (racemic) [vigabatrin, (RS)-4-aminohex-5-enoic acid], the “cerebrospinal concentrations as share of the plasma concentration” value ([1]; 6 h after a single oral dose) is given as 10%, the terminal half-life ([1]; adults) is given as about 10.5 h and the terminal half-life ([1]; children (10 years-16 years)) is given as about 9.5 h. For the same compound, the “area under plasma concentration-time curves versus dose” value ([1]; in vivo) was “dose-linear pharmacokinetics”, the protein binding ([1]; in vivo) was “lack of protein binding” and the terminal half-life ([1]; infants (5 months-2 years)) was “about 5.7 hours”. For the same compound, the tmax ([1]; children) was “about 1 hour” and the tmax ([1]; neonates and infants) was “approximately 2.5 hours”.
In the case of `N[C@H]1C[C@@H](C(=O)O)CC1=C(F)F` [(1S,3S)-3-amino-4-(difluoromethylidene)cyclopentane-1-carboxylic acid], the “increase in AUCs with dose” value ([2]; in the dose range 5 mg-500 mg) is given as “greater than proportional increase” and the “Cmax increase with dose” value ([2]; over a range of 5 mg-500 mg) is given as “dose proportional”.
For `N[C@H]1C=C(C(=O)O)CC1=C(F)F` [(S)-3-amino-4-(difluoromethylenyl)cyclopent-1-ene-1-carboxylic acid], the “Effect on open field hyperactivity (FIG. 1)” value (Fmr1 KO2 mice) was “significantly reduced” and the “Effect on open field hyperactivity (FIG. 7)” value (Fmr1 KO1 mice) was “reversed hyperactivity”.
With `Cc1cccc(C#Cc2ccccc2)n1` [MPEP, 2-Methyl-6-(phenylethynyl)pyridine, reference compound] the Seizure ([3]; 30 mg/kg i.p.) was 0/10, the Wild running ([3]; 30 mg/kg i.p.) was 0/10 and the Incidence [3, 4] was 0%. For the same compound, the Respiratory arrest [3, 4] was 0/10.
